The record followed here is patent US11459330B2, “Substituted bicyclic heterocyclic compounds as PRMT5 inhibitors” (LUPIN LIMITED, priority 2017, dated 2022).

By IC50 is commonly meant the point on the concentration scale where inhibition reaches its midpoint.

In one test the target is PRMT5:MEP50 (Homo sapiens, UniProt O14744). As to the kind of experiment: PRMT5 biochemical HTRF assay (Biochemical Assay Protocol 1 / 2). As to conditions: biotinylated H4R3 substrate, 1 μM SAM, protocol 1 or 2 not given, activity range 300 pM to 950 pM, read-out: IC50 (PRMT5 inhibition), activity range. The protocol: Biochemical Assay Protocol 1
Sequence of PRMT5:MEP50 (O14744 whole entry, the tested form may be a part): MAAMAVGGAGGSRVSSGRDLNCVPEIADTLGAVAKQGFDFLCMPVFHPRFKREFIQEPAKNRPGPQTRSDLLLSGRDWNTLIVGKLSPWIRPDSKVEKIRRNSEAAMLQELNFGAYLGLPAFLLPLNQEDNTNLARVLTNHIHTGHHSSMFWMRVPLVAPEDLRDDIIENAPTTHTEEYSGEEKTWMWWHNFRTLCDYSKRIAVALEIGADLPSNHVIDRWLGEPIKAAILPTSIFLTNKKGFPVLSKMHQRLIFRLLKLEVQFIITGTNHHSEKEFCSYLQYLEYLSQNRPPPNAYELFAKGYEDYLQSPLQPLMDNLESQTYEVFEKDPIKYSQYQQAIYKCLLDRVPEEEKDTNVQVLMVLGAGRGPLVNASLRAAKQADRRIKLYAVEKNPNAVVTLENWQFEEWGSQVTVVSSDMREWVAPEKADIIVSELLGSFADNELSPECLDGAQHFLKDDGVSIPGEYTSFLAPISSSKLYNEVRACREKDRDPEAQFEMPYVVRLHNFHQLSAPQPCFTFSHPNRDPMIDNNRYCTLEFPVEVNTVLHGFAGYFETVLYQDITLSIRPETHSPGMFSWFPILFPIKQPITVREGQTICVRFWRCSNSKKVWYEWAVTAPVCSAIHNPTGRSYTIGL
Sequence of PRMT5:MEP50 (Q9BQA1 whole entry partner, the tested form may be a part): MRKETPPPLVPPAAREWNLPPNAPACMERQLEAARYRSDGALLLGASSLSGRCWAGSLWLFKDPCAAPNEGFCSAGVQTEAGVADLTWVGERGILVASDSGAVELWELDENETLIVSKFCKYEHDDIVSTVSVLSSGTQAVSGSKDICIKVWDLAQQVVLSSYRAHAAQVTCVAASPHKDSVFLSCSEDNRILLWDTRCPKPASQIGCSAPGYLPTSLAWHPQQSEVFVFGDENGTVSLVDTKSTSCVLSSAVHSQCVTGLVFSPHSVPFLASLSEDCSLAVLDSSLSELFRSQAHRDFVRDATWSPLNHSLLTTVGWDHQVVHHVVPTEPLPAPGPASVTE
(§1) Inhibitory effect of compounds on PRMT5 was assessed using HTRF detection technology in biochemical assay. Biotinylated H4R3 (residues 1-21) was used as a substrate. Compounds were pre-incubated with 15-25 ng PRMT5:MEP50 per well of a 384-well plate for 30 min at room temperature in the assay buffer containing 20 mM Bicine, pH 7.6, 25 mM NaCl, 2 mM DTT, 0.01% Chicken albumin and 0.01% Tween-20. Reaction was initiated by adding 1 μM of SAM and 50 nM biotinylated H4R3. Total assay volume was 15 μL. Reaction was continued for 120 min at room temperature. Then detection solution containing Streptavidin-Eu cryptate, anti-rabbit IgG-XL-665, Histone H4R3 Dimethyl Symmetric (H4R3me2s) Polyclonal Antibody, all prepared in HTRF detection buffer was added and further incubated for 30 min at room temperature. HTRF signal was recorded in PHERAStar microplate reader. Ratio of signal obtained at 665 nm and 620 nm was used to compute the percent inhibition of compound as follows % Inhibition=100−((Test Ratio−Negative control Ratio)/(Positive control Ratio−Negative control Ratio)*100) where Positive control=PRMT5+SAM+H4R3 Negative control=PRMT5+H4R3 Biochemical Assay Protocol 2
as §1, with “2.5” for “15-25”, “4 h” for “120 min”, “control=PRMT5+H4R3” for “control=PRMT5+H4R3 Biochemical Assay Protocol 2”

Another test has as its system PANC-1 cells. As to the kind of experiment: Anti-cancer assay (Panc-1), cell viability CellTiterGlo. The note with it: Homo sapiens, PANC-1, 168 h, 7 days. Type of test: cell-based. The protocol:
Anticancer Activity Assay
Z-138 cells were seeded at a density of 2000-3000 cells per well in culture media (IMDM+10% FBS). PANC-1 (ATCC, CRL-1469™) and MIA PaCa-2 (ATCC, CRL-1420™) cells were seeded at a density of 200-300 cells per well in culture media (DMEM+10% FBS). Cells were seeded in opaque, flat bottomed tissue culture grade 96-well plates and Z-138 cells (suspension) were seeded and treated on the same day with various concentrations of test compounds. PANC-1 and MIA PaCa-2 cells, being adherent, were kept for overnight settlement at standard cell culture conditions (37° C., 5% CO2). On the following day, cells were treated with various concentrations of test compounds. Cells were treated with test compounds for a period of 96 h, 7 days and 10 days, for Z-138 cells, PANC-1 cells and MIA PaCa-2 cells, respectively. Cell viability was assessed using CellTiterGlo™ (Promega, USA) as per manufacturer's instructions. Relative Light Units (RLU) were read in Synergy™ 2 reader (Biotek, USA). The assay measures cellular ATP as an indicator of cell viability. RLU is proportional to the number of viable cells in the respective well.
% inhibition of cell viability was calculated relative to the vehicle control samples containing media with 0.1% DMSO alone as per the formula below. (Avg. of Untreated Control−Avg. of Test)×100 Avg. of Untreated Control
The IC50 values of individual compounds were calculated with Non Linear Regression Analysis using Graph Pad Prism (Graph Pad software, Inc, USA).
Anti-Cancer Assay (Panc-1)
In general terms: Cellular ATP, detected with luciferase, serves as a proxy for viable cell number.

The mark [1] stands for this setting: activity range, lower bound in pM, upper bound in nM.

As for `CC(Cc1cc(F)c2cc(Br)c(N)nc2c1)C1=C[C@@H](n2ccc3c(N)ncnc32)[C@H](O)[C@@H]1O` (single isomer, unassigned) [Compound-45a], the half-inhibitory concentration (IC50) on PRMT5:MEP50 lay in the range of 0.3 to 0.95 nM.
For the compound `Nc1nc2cc(CCC3=C[C@@H](n4ccc5c(N)ncnc54)[C@H](O)[C@@H]3O)ccc2cc1Br` [Compound-1, (1S,2R,5R)-3-(2-(2-Amino-3-bromoquinolin-7-yl)ethyl)-5-(4-amino-7H pyrrolo[2,3-d]pyrimidin-7-yl)cyclopent-3-ene-1,2-diol], the values for the IC50 at PRMT5:MEP50 and with PANC-1 cells (setting [1]) were 0.3 to 0.95 nM and 300 to 20000 pM, respectively.
For `C[C@@]1(O)C(CCc2cc(F)c3cc(Cl)c(N)nc3c2)=C[C@@H](n2ccc3c(N)ncnc32)[C@@H]1O` [Compound-37, (1S,2R,5R)-3-(2-(2-amino-3-chloro-5-fluoroquinolin-7-yl)ethyl)-5-(4-amino-7H-pyrrolo[2,3-d]pyrimidin-7-yl)-2-methylcyclopent-3-ene-1,2-diol], the IC50 on PRMT5:MEP50 was 0.3 to 0.95 nM; with PANC-1 cells (setting [1]), 300 to 20000 pM.
For `Nc1ncc2ccn([C@@H]3C=C(CCc4ccc5cc(Cl)c(N)nc5c4)[C@@H](O)[C@H]3O)c2n1` [Compound-30, (1S,2R,5R)-3-(2-(2-amino-3-chloroquinolin-7-yl)ethyl)-5-(2-amino-7H-pyrrolo[2,3-d]pyrimidin-7-yl)cyclopent-3-ene-1,2-diol], the IC50 with PANC-1 cells (setting [1]) is 300 to 20000 pM.
Regarding `Nc1nc2cc(CCC3=C[C@@H](n4ccc5cnccc54)[C@H](O)[C@@H]3O)cc(F)c2cc1Cl` [Compound-15, (1S,2R,5R)-3-(2-(2-Amino-3-chloro-5-fluoroquinolin-7-yl)ethyl)-5-(1H-pyrrolo[3,2-c]pyridin-1-yl)cyclopent-3-ene-1,2-diol], the IC50 on PRMT5:MEP50 fell in the range of 0.3 to 0.95 nM.
As to `Nc1nc2cc(CC[C@@]34C[C@@H]3[C@@H](n3ccc5c(N)ncnc53)[C@H](O)[C@@H]4O)ccc2cc1Br` [Compound-73, (1R,2R,3S,4R,5S)-1-(2-(2-Amino-3-bromoquinolin-7-yl)ethyl)-4-(4-amino-7H-pyrrolo [2,3-d]pyrimidin-7-yl)bicyclo[3.1.0]hexane-2,3-diol], the IC50 lay within 0.3 to 0.95 nM on PRMT5:MEP50 and 300 to 20000 pM in the test on PANC-1 cells (setting [1]).
For `CCc1ncnc2c1ccn2[C@@H]1C=C(CCc2cc(F)c3cc(Cl)c(N)nc3c2)[C@@H](O)[C@H]1O` [Compound-41, (1S,2R,5R)-3-(2-(2-amino-3-chloro-5-fluoroquinolin-7-yl)ethyl)-5-(4-ethyl-7H-pyrrolo[2,3-d]pyrimidin-7-yl)cyclopent-3-ene-1,2-diol], the IC50 in the test with PANC-1 cells (setting [1]) lay in the range of 300 to 20000 pM.
With `Nc1nc2cc(CCC3=C[C@@H](n4ccc5c(N)ncnc54)[C@H](O)[C@@H]3O)ccc2cc1F` [Compound-23, (1S,2R,5R)-3-(2-(2-Amino-3-fluoroquinolin-7-yl)ethyl)-5-(4-amino-7H-pyrrolo[2,3-d]pyrimidin-7-yl)cyclopent-3-ene-1,2-diol], on PRMT5:MEP50, the IC50 lay within 0.3 to 0.95 nM.
Take `Cc1cc2ccc(CC[C@@]34C[C@@H]3[C@@H](n3ccc5c(N)ncnc53)[C@H](O)[C@@H]4O)cc2nc1N` [Compound-54, (1R,2R,3S,4R,5S)-1-(2-(2-Amino-3-methylquinolin-7-yl)ethyl)-4-(4-amino-7H-pyrrolo[2,3-d]pyrimidin-7-yl) bicyclo[3.1.0]hexane-2,3-diol]: in the test on PANC-1 cells (setting [1]), the IC50 lay in the range of 300 to 20000 pM.
For `CC(Cc1cc(F)c2cc(Cl)c(N)nc2c1)C1=C[C@@H](n2ccc3c(N)ncnc32)[C@H](O)[C@]1(C)O` (stereo partly drawn) [Compound-38, (1S,2R,5R)-3-(1-(2-amino-3-chloro-5-fluoroquinolin-7-yl)propan-2-yl)-5-(4-amino-7H-pyrrolo[2,3-d]pyrimidin-7-yl)-2-methylcyclopent-3-ene-1,2-diol], the IC50 fell in the range of 0.3 to 0.95 nM on PRMT5:MEP50 and 300 to 20000 pM in the test with PANC-1 cells (setting [1]).
Take `Nc1nc2cc(CCC3=C[C@@H](n4ccc5c(N)ncnc54)[C@H](O)[C@@H]3O)cc(F)c2cc1Br` [Compound-43, (1S,2R,5R)-3-(2-(2-Amino-3-bromo-5-fluoroquinolin-7-yl)ethyl)-5-(4-amino-7H-pyrrolo[2,3-d]pyrimidin-7-yl)cyclopent-3-ene-1,2-diol]: the IC50 was 0.3 to 0.95 nM at PRMT5:MEP50 and 300 to 20000 pM in the test with PANC-1 cells (setting [1]).
In the case of `CC(Cc1ccc2cc(Br)c(N)nc2c1)[C@@]12C[C@@H]1[C@@H](n1ccc3c(N)ncnc31)[C@H](O)[C@@H]2O` (stereo partly drawn) [76b, (1S,2R,3S,4R,5S)-1-((S)-1-(2-Amino-3-bromoquinolin-7-yl)propan-2-yl)-4-(4-amino-7H-pyrrolo[2,3-d]pyrimidin-7-yl)bicyclo[3.1.0]hexane-2,3-diol], the IC50 in the test with PANC-1 cells (activity range 20 nM to 100 nM) was in the range of 20000 to 100000 pM.
As for `Cc1ncnc2c1ccn2[C@@H]1C=C(CCc2cc(F)c3cc(Br)c(N)nc3c2)[C@@H](O)[C@H]1O` [Compound-44, (1S,2R,5R)-3-(2-(2-Amino-3-bromo-5-fluoroquinolin-7-yl)ethyl)-5-(4-methyl-7H-pyrrolo[2,3-d]pyrimidin-7-yl)cyclopent-3-ene-1,2-diol], the IC50 at PRMT5:MEP50 fell in the range of 0.3 to 0.95 nM.
Regarding `CC[C@@]1(O)C(CCc2cc(F)c3cc(Cl)c(N)nc3c2)=C[C@@H](n2ccc3c(N)ncnc32)[C@@H]1O` [Compound-40, (1S,2R,5R)-3-(2-(2-amino-3-chloro-5-fluoroquinolin-7-yl)ethyl)-5-(4-amino-7H-pyrrolo[2,3-d]pyrimidin-7-yl)-2-ethylcyclopent-3-ene-1,2-diol], the IC50 with PANC-1 cells (setting [1]) fell in the range of 300 to 20000 pM.
For the compound `Nc1nc2cc(OCC3=C[C@@H](n4ccc5c(N)ncnc54)[C@H](O)[C@@H]3O)cc(F)c2cc1Cl` [Compound-18, (1S,2R,5R)-3-(((2-amino-3-chloro-5-fluoroquinolin-7-yl)oxy)methyl)-5-(4-amino-7H-pyrrolo[2,3-d]pyrimidin-7-yl)cyclopent-3-ene-1,2-diol], the IC50 lay within 0.3 to 0.95 nM on PRMT5:MEP50 and 300 to 20000 pM in the test on PANC-1 cells (setting [1]).
In the case of `Nc1nc2cc(CCC3=C[C@@H](n4ccc5c(N)ncnc54)[C@H](O)[C@@H]3O)cc(Cl)c2cc1Cl` [Compound-29, (1S,2R,5R)-3-(2-(2-amino-3,5-dichloroquinolin-7-yl)ethyl)-5-(4-amino-7H-pyrrolo[2,3-d]pyrimidin-7-yl)cyclopent-3-ene-1,2-diol], the IC50 with PANC-1 cells (activity range 20 nM to 100 nM) was 20000 to 100000 pM.
Consider `CC(Cc1ccc2cc(Cl)c(N)nc2c1)C1=C[C@@H](n2ccc3c(N)ncnc32)[C@H](O)[C@@H]1O` (single isomer, unassigned) [Compound-34b], for which the IC50 at PRMT5:MEP50 was in the range of 0.3 to 0.95 nM; with PANC-1 cells (setting [1]), 300 to 20000 pM.
Regarding `Nc1ccc2cc(F)c(CCC3=C[C@@H](n4ccc5c(N)ncnc54)[C@H](O)[C@@H]3O)cc2n1` [Compound-46, (1S,2R,5R)-3-(2-(2-Amino-6-fluoroquinolin-7-yl)ethyl)-5-(4-amino-7H-pyrrolo[2,3-d]pyrimidin-7-yl)cyclopent-3-ene-1,2-diol], in the test on PANC-1 cells (setting [1]), the IC50 was in the range of 300 to 20000 pM.
Turning to `Cc1ncnc2c1ccn2[C@@H]1C=C(C(C)Cc2cc(F)c3cc(Cl)c(N)nc3c2)[C@@](C)(O)[C@H]1O` (single isomer, unassigned) [Compound-36a], at PRMT5:MEP50, the IC50 was 0.3 to 0.95 nM.
Regarding `Cc1ncnc2c1ccn2[C@@H]1C=C(C(C)Cc2cc(F)c3cc(Cl)c(N)nc3c2)[C@@H](O)[C@H]1O` (single isomer, unassigned) [Compound-35a], in the test with PANC-1 cells (setting [1]), the IC50 lay within 300 to 20000 pM.
